# Source: patent publication US20160346255A1, “METHODS, AGENTS AND COMPOSITIONS FOR TREATMENT OF INFLAMMATORY CONDITIONS” (Betanien Hospital, priority 2014, published 2016)
# Non-standard residues stand in square brackets, D forms with d. Residues, ends and D or L forms follow the SMILES beside them. *: point of attachment. dPhe(4-NHCONH2) = NC(=O)Nc1ccc(C[C@@H](N)C(=O)O)cc1; Dihydroorotyl(S) = O=C1C[C@@H](C(=O)*)NC(=O)N1; dPhe(4-Cl) = N[C@H](Cc1ccc(Cl)cc1)C(=O)O; Phe(4-NH2) = Nc1ccc(C[C@H](N)C(=O)O)cc1; d2Nal = N[C@H](Cc1ccc2ccccc2c1)C(=O)O; Lys(iPr) = CC(C)NCCCC[C@H](N)C(=O)O; d3Pal = N[C@H](Cc1cccnc1)C(=O)O
# Assays:
# Format in all cases: in vivo, human
# [1] = system: Patients with Rheumatoid Arthritis; assay: Rheumatoid arthritis patients treated with degarelix: clinical variables
# Text: Examples of Treating Patients with Rheumatoid Arthritis with a GnRH Antagonist [table] […] Examples of Patients with Continued RA Improvement Over Several Weeks Despite Stably Low Levels of LH
# Patient with Psoriasis = assay: Psoriasis patient treated with degarelix
# Method: The PASI score is a standardized score for assessing disease activity in psoriasis.
# He therefore received testosterone supplementation in the form of Testogel containing 50 mg of testosterone, first daily; thereafter every 3 days to maintain testosterone levels within the normal range.
# One trial examined 15 patients with psoriasis who were taking lithium.
# [2] = system: Patient with Systemic Sclerosis; assay: Systemic sclerosis patient treated with degarelix; settings: for HAQ DI: baseline 1.88; for Digital tip ulcers/pitting scars: baseline 5; for Modified Rodnan Skin Score: baseline 42; for VAS Fatigue / VAS Fingertip pain/pitting scars/ulcers / VAS Gastrointestinal Symptoms / VAS Global / VAS Lung/dyspnea / VAS Pain / VAS Raynauds/vascular: baseline 100; for Sleep: baseline 2 hrs/night
# Text: • person, diagnosed with systemic sclerosis • Fulfilled the 2013 EULAR/ACR classification criteria for systemic sclerosis (1). • Diagnosis based upon Raynauds phenomenon, positive ANA, high titre anti-Scl 70 antibodies, marked skin changes typical of scleroderma, and esophageal dysmotility. • Previously tried cyclophosphamide and mycophenolate mofetil. • Progressive disease and worsening scleroderma skin features, despite therapy. • Rapid progressive cardiac disease, verified by biopsy. • Experimental treatment • 5 Dec. 2014 received first dose of degarelix, 240 mg s.c. • 9 Jan. 2015 received second dose of degarelix, 80 mg s.c.
# • Digital ulcers and pitting scars are a characteristic feature of systemic sclerosis, contributing to disability and pain. They are important factors in patients' evaluations of quality of life (2). Their precise objective evaluation can be included in randomized controlled trials (3). Their pathogenesis is unclear. Histologically, there is a plug-like hyperkeratosis with parakeratosis, homogenized collagen fibers and perivascular mononuclear cell infiltration (4). […] Efficacy variables in a systemic sclerosis patient treated with a GnRH antagonist at baseline, 5 weeks and 6 weeks: […]
# [3] = system: Patient with Rheumatoid Arthritis; assay: Rheumatoid arthritis patient treated with degarelix 40 mg weekly; settings: 240 mg loading
# Method: • person with seropositive rheumatoid arthritis with disease duration of 22 years. • Fulfilled ACR 2010 classification criteria for rheumatoid arthritis.
# • Had tried most therapies available (for example: Humira, Remicade, Enbrel, Actemra, several disease modifying anti-rheumatic drugs), previously without effect or intolerable side effects. • Offered experimental GnRH antagonist therapy, degarelix 40 mg every week with 240 mg loading dose at baseline.
# [4] = Patient 2, 15 weeks, baseline 17
# [5] = Patient 2, 15 weeks, baseline 90
smiles,measurement,setting,value
CC(=O)N[C@H](Cc1ccc2ccccc2c1)C(=O)N[C@H](Cc1ccc(Cl)cc1)C(=O)N[C@H](Cc1cccnc1)C(=O)N[C@@H](CO)C(=O)N[C@@H](Cc1ccc(NC(=O)[C@@H]2CC(=O)NC(=O)N2)cc1)C(=O)N[C@H](Cc1ccc(NC(N)=O)cc1)C(=O)N[C@@H](CC(C)C)C(=O)N[C@@H](CCCCNC(C)C)C(=O)N1CCC[C@H]1C(=O)N[C@H](C)C(N)=O [degarelix] (Ac-[d2Nal][dPhe(4-Cl)][d3Pal]S[Phe(4-NH2)](Dihydroorotyl(S))[dPhe(4-NHCONH2)]L[Lys(iPr)]P[dA]-NH2),"Function score (Good <1), final","[1]; Patient 1, 28 weeks, baseline 1.25","1.25, 0"
same,"Morning stiffness, final","[1]; Patient 1, 28 weeks, baseline 2.5","2.5, 0 hrs"
same,"Swollen joint count assessed with ultrasound, final","[1]; Patient 1, 28 weeks, baseline 6","6, 0"
same,"Tender joint, final","[1]; Patient 1, 28 weeks, baseline 9","9, 0"
same,"Patient own assessment (0-100), final","[1]; Patient 1, 28 weeks, baseline 81","81, 0"
same,"Physician assessment (0-100), final","[1]; Patient 1, 28 weeks, baseline 85","85, 7"
same,ACR % Response,"[1]; Patient 1, treatment duration 28 weeks",90%
same,"Function score (Good <1), final","[1]; Patient 2, 15 weeks, baseline 2.0","2.0, 0.25"
same,"Morning stiffness, final","[1]; Patient 2, 15 weeks, baseline 9","9, 1 hrs"
same,"Swollen joint count assessed with ultrasound, final",[1]; [4],"17, 2"
same,"Tender joint, final",[1]; [4],"17, 3"
same,"Patient own assessment (0-100), final",[1]; [5],"90, 35"
same,"Physician assessment (0-100), final",[1]; [5],"90, 40"
same,ACR % Response,"[1]; Patient 2, treatment duration 15 weeks",60%
same,ACR % Response,"[1]; Patient 3, 4 wks",30%
same,ACR % Response,"[1]; Patient 3, 8 wks",40%
same,"Function score (Good <1), final","[1]; Patient 3, 12 weeks, baseline 1.75","1.75, 0.63"
same,"Morning stiffness, final","[1]; Patient 3, 12 weeks, baseline 7","7, ½"
same,"Swollen joint count assessed with ultrasound, final","[1]; Patient 3, 12 weeks, baseline 23","23, 4"
same,"Tender joint, final","[1]; Patient 3, 12 weeks, baseline 26","26, 11"
same,"Patient own assessment (0-100), final","[1]; Patient 3, 12 weeks, baseline 50","50, 30"
same,"Physician assessment (0-100), final","[1]; Patient 3, 12 weeks, baseline 90","90, 30"
same,ACR % Response,"[1]; Patient 3, 12 wks",50%
same,ACR % Response,"[1]; Patient 3, treatment duration 12 weeks",50%
same,ACR % Response,"[1]; Patient 4, 3½ wks",20%
same,"Function score (Good <1), final","[1]; Patient 4, 9 weeks, baseline 0.88","0.88, 0.38"
same,"Morning stiffness, final","[1]; Patient 4, 9 weeks, baseline 7","7, 3 hrs"
same,"Swollen joint count assessed with ultrasound, final","[1]; Patient 4, 9 weeks, baseline 24","24, 3"
same,"Tender joint, final","[1]; Patient 4, 9 weeks, baseline 28","28, 11"
same,"Physician assessment (0-100), final","[1]; Patient 4, 9 weeks, baseline 80","80, 40"
same,"Patient own assessment (0-100), final","[1]; Patient 4, 9 weeks, baseline 90","90, 50"
same,ACR % Response,"[1]; Patient 4, 9 wks",50%
same,ACR % Response,"[1]; Patient 4, treatment duration 9 weeks",50%
same,"Function score (Good <1), final","[1]; Patient 5, 7 weeks, baseline 1.29","1.29, 0.88"
same,"Morning stiffness, final","[1]; Patient 5, 7 weeks, baseline 2.5","2.5, ¾"
same,"Swollen joint count assessed with ultrasound, final","[1]; Patient 5, 7 weeks, baseline 10","10, 2"
same,"Tender joint, final","[1]; Patient 5, 7 weeks, baseline 12","12, 0"
same,"Physician assessment (0-100), final","[1]; Patient 5, 7 weeks, baseline 70","70, 20"
same,"Patient own assessment (0-100), final","[1]; Patient 5, 7 weeks, baseline 88, footnote: muscular pain in arms","88, 88^3"
same,Power Doppler (inflammatory activity) on ultrasound of shoulder and MCP 4 joints,"[1]; Patient 5, after treatment, power Doppler present before (FIG. 2)",no power Doppler
same,ACR % Response,"[1]; Patient 5, treatment duration 7 weeks",30%
same,"Function score (Good <1), final","[1]; Patient 6, 36 weeks, baseline 1.5","1.5, 0.625"
same,"Morning stiffness, final","[1]; Patient 6, 36 weeks, baseline 2","2, 0 hrs"
same,"Swollen joint count assessed with ultrasound, final","[1]; Patient 6, 36 weeks, baseline 16","16, 0"
same,"Tender joint, final","[1]; Patient 6, 36 weeks, baseline 24","24, 0"
same,"Patient own assessment (0-100), final","[1]; Patient 6, 36 weeks, baseline 60","60, 7"
same,"Physician assessment (0-100), final","[1]; Patient 6, 36 weeks, baseline 90","90, 7"
same,Effusion over the right wrist on ultrasound,"[1]; Patient 6, by 3.5 weeks of degarelix, large effusion before (FIG. 4)",much smaller
same,ACR % Response,"[1]; Patient 6, treatment duration 36 weeks",80%
same,Testosterone (normal 8-35 nmol/L),"Patient with Psoriasis; after the first week, before 12 nmol/L",< 1 nmol/L
same,Improvement in psoriasis,Patient with Psoriasis; at 6 months,stable
same,PASI absolute reduction,Patient with Psoriasis; by 8 weeks,12.3 points
same,PASI reduction,Patient with Psoriasis; by 8 weeks,23%
same,PASI score,"Patient with Psoriasis; by 8 weeks, baseline 53.6",41.3
same,Testosterone (normal 8-35 nmol/L),"Patient with Psoriasis; week 8, under testosterone substitution (Testogel)",9 nmol/L
same,HAQ DI,[2]; 5 weeks,1.38
same,Digital tip ulcers/pitting scars,[2]; 5 weeks,2
same,Modified Rodnan Skin Score,[2]; 5 weeks,40
same,VAS Fatigue,[2]; 5 weeks,75
same,VAS Fingertip pain/pitting scars/ulcers,[2]; 5 weeks,40
same,VAS Gastrointestinal Symptoms,[2]; 5 weeks,80
same,VAS Global,[2]; 5 weeks,40
same,VAS Lung/dyspnea,[2]; 5 weeks,80
same,VAS Pain,[2]; 5 weeks,10
same,VAS Raynauds/vascular,[2]; 5 weeks,40
same,Sleep,[2]; 5 weeks,5 hrs/night
same,HAQ DI,[2]; 6 weeks,1.38
same,Digital tip ulcers/pitting scars,[2]; 6 weeks,2
same,Modified Rodnan Skin Score,[2]; 6 weeks,40
same,VAS Fatigue,[2]; 6 weeks,60
same,VAS Fingertip pain/pitting scars/ulcers,[2]; 6 weeks,30
same,VAS Gastrointestinal Symptoms,[2]; 6 weeks,60
same,VAS Global,[2]; 6 weeks,40
same,VAS Lung/dyspnea,[2]; 6 weeks,50
same,VAS Pain,[2]; 6 weeks,10
same,VAS Raynauds/vascular,[2]; 6 weeks,30
same,Sleep,[2]; 6 weeks,5.5 hrs/night
same,CRP,[3]; from 87 mg/L,67 mg/L
same,ESR,[3]; from 62 mm,38 mm
same,Disease activity score (DAS),"[3]; at 2 weeks, from 7.3",6.7
